Results published in article PMC12668310, “High‐Throughput Synthesis and Screening of a Cyanimide Library Identifies Selective Inhibitors of ISG15‐Specific Protease mUSP18” (Angewandte Chemie (International Ed. in English), 2025).
Like-named read-outs stand apart in the source and are kept apart here.

Biological target: T1, mUSP18 (Mus musculus, UniProt Q9WTV6)
T1 construct: (46-368); His-tag (N); made in house
T1 sequence (Q9WTV6 46-368): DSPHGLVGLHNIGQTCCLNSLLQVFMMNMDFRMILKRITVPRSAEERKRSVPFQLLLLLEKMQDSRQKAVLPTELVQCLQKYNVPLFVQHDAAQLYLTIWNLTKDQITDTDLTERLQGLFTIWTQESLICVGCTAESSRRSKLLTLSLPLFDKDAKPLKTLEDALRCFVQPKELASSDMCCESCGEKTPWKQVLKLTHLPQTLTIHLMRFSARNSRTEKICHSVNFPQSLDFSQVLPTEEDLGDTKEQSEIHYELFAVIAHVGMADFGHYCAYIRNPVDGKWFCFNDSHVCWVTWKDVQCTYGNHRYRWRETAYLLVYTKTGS
Experiment: High-throughput screening, ISG15ct-RhoMP, single dose 1.25 µM
Type: biochemical, murine
Settings: mUSP18 %inhibition

[1] = carboxylic acid (CA) building block alone, read-out: %inh CA only
[2] = carboxylic acid (CA) with coupling reagents DIC/HOBT, read-out: %inh CA + DIC/HOBT

Structure (SMILES) | inhibition at 1.25 µM [1] | inhibition at 1.25 µM [2]
Cc1cnn(-c2c(C(=O)O)c(C)nn2C)c1 [CA110] | 12.9% | 15%
O=C(O)c1csc(-c2ncccn2)n1 [CA111] | 12.3% | 14.7%
O=C(O)c1ncoc1C1CC1 [CA112] | 13.7% | 16.4%
O=C(O)CC(O)(c1nccn1Cc1ccccc1)C(F)(F)F (stereo not drawn) [CA113] | 9.19% | 16.2%
O=C(O)c1cn(C2CCC2)nn1 [CA114] | 23.9% | 9%
Cc1ccc(NS(=O)(=O)c2cccc(C(=O)O)c2)cc1 [CA115] | 21.2% | 6.11%
O=C(O)[1C@@H]1C[1C@H]1c1ccco1 [CA116] | 14.9% | 4.8%
Cn1ncc(C(=O)O)c1-n1cccc1 [CA117] | 18.6% | 10%
O=C(O)C1(n2cnnn2)CC1 [CA118] | 12.1% | 4.09%
O=C(O)C1CC(OCc2ccccc2)C1 (stereo not drawn) [CA119] | 13.6% | 8.14%
O=C(O)C1(n2cnnn2)CCOCC1 [CA120] | 11.7% | 5.68%
O=C(O)c1noc(Cc2ccccc2F)n1 [CA121] | 10.7% | 7.15%
CCn1cc(S(=O)(=O)N2CCC(C(=O)O)CC2)cn1 [CA122] | 11.4% | 5.98%
O=C(O)[1C@@H]1CCO[1C@H]1c1ccccc1 [CA123] | 12.2% | 8.31%
O=C(O)c1cnnn1-c1ccccc1Cl [CA124] | 10.7% | 3.42%
O=C(O)c1cnn(-c2ccncc2)c1 [CA125] | 7.48% | 7.42%
O=C(O)c1snnc1-c1ccc(Br)cc1 [CA126] | 9.01% | 10.8%
Cc1nc(CN2CCCC2C(=O)O)no1 (stereo not drawn) [CA127] | 2.84% | 5.46%
Cc1oc(-c2ccco2)nc1CC(=O)O [CA128] | 4.02% | 9.87%
O=C(O)c1ccccc1OCc1ccncc1 [CA129] | 8.78% | 10.2%
COc1ccc(N2CCN(C(C)C(=O)O)CC2)cc1 (stereo not drawn) [CA130] | 7.09% | 7.3%
Cc1cc(C)c(C(=O)O)c(OCC2CCCCC2)n1 [CA131] | 9.41% | 31.3%
O=C(O)c1ccc(S(=O)(=O)NC2CC2)cc1 [CA132] | 7.6% | 4.16%
O=C(O)c1cc(-c2ccc(Cl)cc2)oc1C(F)(F)F [CA133] | 11% | 11.8%
O=C(O)c1cccc(S(=O)(=O)Nc2ccc(Cl)cc2)c1 [CA134] | 10% | 11.6%
O=C(O)c1ccn(-c2ncc(C(F)(F)F)cc2Cl)n1 [CA135] | 4.28% | 10.4%
O=C(O)Cc1coc(-c2ccccc2)n1 [CA136] | 8.08% | 12.8%

Structure (SMILES) | inhibition at 1.25 µM [1] | inhibition at 1.25 µM [2]
Cn1cc(NS(=O)(=O)c2ccsc2C(=O)O)cn1 [CA137] | 3.97% | 20.1%
O=C(O)CC(NS(=O)(=O)c1ccccc1)c1ccc(Cl)cc1 (stereo not drawn) [CA138] | 22.3% | 5.42%
O=C(O)c1cccc(S(=O)(=O)NCC2CCCO2)c1 (stereo not drawn) [CA139] | 14.3% | -1.37%
O=C(O)c1c[nH]nc1-c1cccnc1 [CA140] | 9.15% | 7.35%
O=C(O)Cc1ccc(NS(=O)(=O)c2c(Cl)cccc2Cl)cc1 [CA141] | 9.99% | 2.69%
O=C(O)c1csc(-c2cnccn2)n1 [CA142] | 8.67% | 6.39%
O=C(O)c1cccc(S(=O)(=O)NC2CC2)c1 [CA143] | 5.82% | 3.07%
O=C(O)c1ccc(Oc2cccc(Cl)c2Cl)nn1 [CA144] | 10.8% | 12.9%
CC1CC1C(=O)N1CCCCC1C(=O)O (stereo not drawn) [CA145] | 4.43% | 1.71%
O=C(O)c1ncoc1-c1ccco1 [CA146] | 8.58% | 6.8%
COc1cc(C(=O)O)ccc1OCc1c(C)noc1C [CA147] | 5.62% | 3.45%
O=C(O)c1cc(-c2ccc(Cl)s2)[nH]n1 [CA148] | 7.78% | 9.65%
O=C(O)Cc1ccc(S(=O)(=O)N2CCOCC2)s1 [CA149] | 9.87% | 8.05%
O=C(O)c1cc(OCc2ccccc2)ccn1 [CA150] | 3.17% | 5.95%
CN(Cc1ccco1)c1ccccc1C(=O)O [CA151] | 3.28% | 7.61%
Cc1cccc(C(=O)N2CCCCC2C(=O)O)n1 (stereo not drawn) [CA152] | 2.22% | 6.16%
Cc1nc(-c2c(C)c(C)nn(C)c2=O)sc1C(=O)O [CA153] | 1.24% | 3.87%
O=C(O)c1cnc(COc2ccccc2)s1 [CA154] | 0.13% | 5.09%
CC1=NN(c2ccc(C(=O)O)cc2)CC1 [CA155] | 4.05% | 20.8%
Cc1oc(Cn2cc(Br)cn2)cc1C(=O)O [CA156] | 8.69% | 12.3%
Cn1cc(S(=O)(=O)NCc2ccco2)cc1C(=O)O [CA157] | 2.07% | 6.58%
O=C(O)Cc1cccc(OCc2ccccn2)c1 [CA158] | 1.44% | 6.76%
Cc1nc(-c2ncccn2)sc1C(=O)O [CA159] | 2.85% | 8.46%
O=C(O)c1cn(CCc2ccccc2)nn1 [CA160] | 3.82% | 10.4%
O=C(O)c1cn(CC(=O)N2CCCC2)nn1 [CA161] | 2.32% | 14.5%
CCC1(Cn2cc(C(=O)O)nn2)COC1 [CA167] | 10.3% | 2.71%
O=C(O)c1cnn(CC2CCCCO2)c1 (stereo not drawn) [CA174] | 2.59% | 8.37%

Now from value to compound:

inhibition at 1.25 µM [1] | inhibition at 1.25 µM [2] | Structure (SMILES)
23.2% | 4.62% | COc1ccccc1-c1nnc(CC(=O)O)o1 [CA162]
18.6% | 0.52% | Cc1ccc(N(CCC(=O)O)S(=O)(=O)c2ccccc2)cc1 [CA163]
14.4% | -2.41% | Cn1nccc1[1C@@H]1OCCC[1C@H]1C(=O)O [CA164]
16% | 9.48% | O=C(O)c1cc(-c2ccc(Br)cc2)ns1 [CA165]
10.9% | -0.27% | Cn1ncc(C2CC2)c1C(=O)O [CA166]
11.2% | -1.08% | O=C(O)c1cc(-n2ccnn2)ccc1F [CA168]
8.46% | 4.42% | O=C(O)c1noc(-c2cccc(Cl)c2)n1 [CA169]
9.55% | 3.27% | Cc1nnnn1-c1cc(C(=O)O)cc(C(F)(F)F)c1 [CA171]
9.83% | 13.4% | CC1CCN(c2ncc(C(=O)O)s2)CC1 [CA172]
8.54% | 5.44% | O=C(O)C1CCN(c2ccc(=O)[nH]n2)CC1 [CA173]
1.19% | 12.1% | Cc1cc(C(=O)O)c(C2CC2)s1 [CA175]
15.3% | 5.42% | O=C(O)c1ccc(-n2ccnc2)nn1 [CA176]
4.94% | 4.56% | O=C(O)c1c(-c2ccccc2)noc1C(F)F [CA177]
4.04% | 11.9% | O=C(O)C1(c2ccccc2Cl)CCOCC1 [CA178]
2.24% | 4.32% | Cc1noc(C)c1Cc1ccc(C(=O)O)o1 [CA179]
2.04% | 3.97% | Cc1cc(NS(=O)(=O)c2cccc(C(=O)O)c2)no1 [CA180]
2.59% | 16.4% | CN1CCN(C(=O)C2CC=CCC2C(=O)O)CC1 (stereo not drawn) [CA181]
2.85% | 2.77% | O=C(O)c1ccc(S(=O)(=O)N2CCOCC2)cc1 [CA182]
4.52% | 3.13% | O=C(O)Cc1csc(-n2cccc2)n1 [CA183]
3.02% | 10.3% | Cc1cc(-c2nc(C)sc2CC(=O)O)c(C)s1 [CA184]
3.64% | 9.2% | O=C(O)C1CC(=O)N(CCOc2ccccc2Cl)C1 (stereo not drawn) [CA185]
20.6% | 9.85% | O=C(O)c1ccc(-n2ncc(Cl)c(Cl)c2=O)cc1 [CA186]
12.1% | -2.66% | O=C(O)c1ccc(CN2CCOCC2)cc1 [CA187]
10.2% | -0.34% | O=C(O)c1cnc(-c2ccco2)s1 [CA188]
4.78% | -9.04% | O=C(O)Cc1csc(-c2cccs2)n1 [CA189]
9.48% | 6.54% | O=C(O)c1csc(-c2ccccn2)n1 [CA190]
4.33% | 1.25% | Cc1noc(C)c1COc1ccc(CC(=O)O)cc1 [CA191]
